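All cell lines were grown in 96-well plates and treated with compound for 48 hours. TGI: concentration producing complete growth inhibition.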
Legend:
Experiment in all cases: DTP human tumour cell line panel, 48 h
786-0 renal = system: 786-0 renal
A549 NSCLC = system: A549 NSCLC
ACHN renal = system: ACHN renal
BT-549 breast = system: BT-549 breast
CAKI-1 renal = system: CAKI-1 renal
CCRF-CEM leukemia = system: CCRF-CEM leukemia
COLO 205 colon = system: COLO 205 colon
DU-145 prostate = system: DU-145 prostate
EKVX NSCLC = system: EKVX NSCLC
HCC-2998 colon = system: HCC-2998 colon
HCT-116 colon = system: HCT-116 colon
HCT-15 colon = system: HCT-15 colon
HL-60(TB) leukemia = system: HL-60(TB) leukemia
HOP-62 NSCLC = system: HOP-62 NSCLC
HOP-92 NSCLC = system: HOP-92 NSCLC
HS 578T breast = system: HS 578T breast
HT29 colon = system: HT29 colon
IGROV1 ovarian = system: IGROV1 ovarian
K-562 leukemia = system: K-562 leukemia
KM12 colon = system: KM12 colon
LOX IMVI melanoma = system: LOX IMVI melanoma
M14 melanoma = system: M14 melanoma
MCF7 breast = system: MCF7 breast
MDA-MB-231 breast = system: MDA-MB-231 breast
MDA-MB-435 = system: MDA-MB-435
MDA-N = system: MDA-N
MOLT-4 leukemia = system: MOLT-4 leukemia
NCI-H226 lung = system: NCI-H226 lung
NCI-H23 lung = system: NCI-H23 lung
NCI-H460 lung = system: NCI-H460 lung
NCI-H522 lung = system: NCI-H522 lung
NCI/ADR-RES ovarian = system: NCI/ADR-RES ovarian
OVCAR-3 ovarian = system: OVCAR-3 ovarian
OVCAR-8 ovarian = system: OVCAR-8 ovarian
PC-3 prostate = system: PC-3 prostate
RPMI-8226 leukemia = system: RPMI-8226 leukemia
RXF 393 renal = system: RXF 393 renal
SF-268 CNS = system: SF-268 CNS
SF-295 CNS = system: SF-295 CNS
SF-539 CNS = system: SF-539 CNS
SK-MEL-2 melanoma = system: SK-MEL-2 melanoma
SK-MEL-28 melanoma = system: SK-MEL-28 melanoma
SK-MEL-5 melanoma = system: SK-MEL-5 melanoma
SK-OV-3 ovarian = system: SK-OV-3 ovarian
SN12C renal = system: SN12C renal
SNB-19 CNS = system: SNB-19 CNS
SNB-75 CNS = system: SNB-75 CNS
SR leukemia = system: SR leukemia
SW-620 colon = system: SW-620 colon
T-47D breast = system: T-47D breast
TK-10 renal = system: TK-10 renal
U251 CNS = system: U251 CNS
UACC-257 melanoma = system: UACC-257 melanoma
UACC-62 melanoma = system: UACC-62 melanoma
UO-31 renal = system: UO-31 renal

Compound `Cc1cc(-c2nc3c(O)cccc3s2)ccc1N` has a TGI (786-0 renal) of 95.1 µM, a TGI (A549 NSCLC) of 47.9 µM and a TGI (ACHN renal) of 43.4 µM. For the same compound, the TGI (BT-549 breast) was 58.3 µM, the TGI (CAKI-1 renal) was 56.1 µM and the TGI (CCRF-CEM leukemia) was 82.9 µM. For the same compound, the TGI (COLO 205 colon) was greater than 100 µM, the TGI (DU-145 prostate) was greater than 100 µM and the TGI (EKVX NSCLC) was 52.9 µM. For the same compound, the TGI (HCC-2998 colon) was greater than 100 µM, the TGI (HCT-116 colon) was 49 µM and the TGI (HCT-15 colon) was 79 µM. For the same compound, the TGI (HL-60(TB) leukemia) was 44.5 µM, the TGI (HOP-62 NSCLC) was 88.8 µM and the TGI (HOP-92 NSCLC) was 58.9 µM. The TGI (HS 578T breast) was 40.8 µM, the TGI (HT29 colon) was 53.3 µM and the TGI (IGROV1 ovarian) was 53.8 µM. The TGI (K-562 leukemia) was greater than 100 µM, the TGI (KM12 colon) was 65 µM and the TGI (LOX IMVI melanoma) was 40.1 µM. It also gave a TGI (M14 melanoma) of 39.5 µM, a TGI (MCF7 breast) of 32.6 µM and a TGI (MDA-MB-231 breast) of 61.7 µM. The TGI (MDA-MB-435) was 38.2 µM, the TGI (MDA-N) was 76.9 µM and the TGI (MOLT-4 leukemia) was greater than 100 µM. For the same compound, the TGI (NCI-H226 lung) was greater than 100 µM, the TGI (NCI-H23 lung) was 89.4 µM and the TGI (NCI-H460 lung) was greater than 100 µM. For the same compound, the TGI (NCI-H522 lung) was 39.9 µM, the TGI (NCI/ADR-RES ovarian) was 50.4 µM and the TGI (OVCAR-3 ovarian) was greater than 100 µM. The TGI (OVCAR-8 ovarian) was 54.4 µM, the TGI (PC-3 prostate) was 52.6 µM and the TGI (RPMI-8226 leukemia) was greater than 100 µM. It also gave a TGI (RXF 393 renal) greater than 100 µM, a TGI (SF-268 CNS) of 75.6 µM and a TGI (SF-295 CNS) of 72.2 µM. For the same compound, the TGI (SF-539 CNS) was greater than 100 µM, the TGI (SK-MEL-2 melanoma) was 52.9 µM and the TGI (SK-MEL-28 melanoma) was greater than 100 µM. The TGI (SK-MEL-5 melanoma) was greater than 100 µM, the TGI (SK-OV-3 ovarian) was greater than 100 µM and the TGI (SN12C renal) was 90.7 µM. The TGI (SNB-19 CNS) was 41 µM, the TGI (SNB-75 CNS) was greater than 100 µM and the TGI (SR leukemia) was 93.8 µM. It also gave a TGI (SW-620 colon) greater than 100 µM, a TGI (T-47D breast) greater than 100 µM and a TGI (TK-10 renal) of 74.8 µM. It also gave a TGI (U251 CNS) greater than 100 µM, a TGI (UACC-257 melanoma) of 57.6 µM and a TGI (UACC-62 melanoma) of 26.7 µM. It also gave a TGI (UO-31 renal) of 36.6 µM.

— PubChem BioAssay (NCI)
